Laboratory results from US11225503B2, “Crystobactamides” (HELMHOLTZ-ZENTRUM FÜR INFEKTIONSFORSCHUNG GMBH, priority 2013, dated 2022).
In brackets after ≈: the same amount, converted by molar mass.

Key:
[1] = tested on: Burkholderia cenocepacia DSM-16553; test: Susceptibility testing, MIC microdilution; format: cell-based; details: Burkholderia cenocepacia, DSM16553
[2] = tested on: Enterobacter aerogenes DSM-30053; test: Susceptibility testing, MIC microdilution; format: cell-based; details: Klebsiella aerogenes, DSM30053
In short: (§1)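 Inoculum 10^4-10^6 cfu/mL; media: MHB pH 7.4 (E. coli), TSB pH 7.3 (E. faecalis), Myc pH 7.0 (C. albicans). Duplicate serial dilutions, shaking 750 rpm, 30-37° C., 18-48 h. Visual endpoint.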

[3] = tested on: Escherichia coli ATCC25922; test: Susceptibility testing, MIC microdilution; format: cell-based
In short: as §1

[4] = tested on: Escherichia coli DSM-1116; test: Susceptibility testing, MIC microdilution; format: cell-based; details: Escherichia coli, DSM1116
In short: as §1

[5] = tested on: Escherichia coli DSM-26863 (tolC3); test: Susceptibility testing, MIC microdilution; format: cell-based; details: Escherichia coli, DSM26863
In short: as §1

[6] = tested on: Klebsiella pneumoniae DSM-30104; test: Susceptibility testing, MIC microdilution; format: cell-based; details: Klebsiella pneumoniae, DSM30104
[7] = tested on: Mycobacterium smegmatis mc^2155 ATCC700084; test: Susceptibility testing, MIC microdilution; format: cell-based; details: Mycolicibacterium smegmatis, ATCC700084|MC^2155
[8] = tested on: Pseudomonas aeruginosa PA14; test: Susceptibility testing, MIC microdilution; format: cell-based
[9] = target: T1, H. sapiens topoisomerase I (Homo sapiens, UniProt P11387); test: Topoisomerase I relaxation (inhibition) assay; format: biochemical
T1 construct: purchased Inspiralis (Norwich, UK)
T1 sequence (P11387 1-765): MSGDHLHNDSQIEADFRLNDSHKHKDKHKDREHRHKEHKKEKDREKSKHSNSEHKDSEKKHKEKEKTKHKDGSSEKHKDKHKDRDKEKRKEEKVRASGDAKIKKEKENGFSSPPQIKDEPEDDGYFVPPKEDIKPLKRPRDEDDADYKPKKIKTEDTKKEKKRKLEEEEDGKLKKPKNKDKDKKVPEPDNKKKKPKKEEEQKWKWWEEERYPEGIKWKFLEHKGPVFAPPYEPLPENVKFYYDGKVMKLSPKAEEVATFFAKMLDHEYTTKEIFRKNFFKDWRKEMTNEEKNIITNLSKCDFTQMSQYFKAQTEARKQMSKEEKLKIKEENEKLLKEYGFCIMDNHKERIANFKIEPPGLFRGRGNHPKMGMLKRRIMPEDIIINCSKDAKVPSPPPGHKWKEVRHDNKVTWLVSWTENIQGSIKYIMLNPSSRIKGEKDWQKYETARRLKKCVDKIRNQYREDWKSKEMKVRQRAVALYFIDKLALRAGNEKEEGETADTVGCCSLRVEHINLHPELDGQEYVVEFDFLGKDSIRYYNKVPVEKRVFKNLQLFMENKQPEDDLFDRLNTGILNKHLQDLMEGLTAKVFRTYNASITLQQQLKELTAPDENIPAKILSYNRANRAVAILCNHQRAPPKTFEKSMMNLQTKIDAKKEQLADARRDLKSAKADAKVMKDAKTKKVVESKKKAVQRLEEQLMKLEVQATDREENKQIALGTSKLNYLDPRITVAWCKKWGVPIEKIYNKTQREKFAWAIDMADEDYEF
Protocol: Aside the ATP-dependent type IIa topoisomerases like E. coli gyrase, topoIV and human topoII, the activity of cystobactamides on the ATP-independent human topoisomerase I was tested as well.
The topo I reactions were titrated with varying concentrations of A-D and resolved by agarose gel electrophoresis. For IC50 determination the band intensity of the supercoiled plasmid was determined using Adobe Photoshop, plotted vs. [cystobactamide] and fitted using Hill's equation.
Following natural product concentrations were used in the assay:
Cystobactamide C: 300 μM; 30 μM; 3 μM
Control reactions were: no enzyme and a standard reaction in presence of 5% (v/v) DMSO. All reaction samples were equilibrated for 10 minutes at room-temperature in the absence of DNA. Then the relaxed plasmid was added to start the reaction
To determine IC50 values, the formation of supercoiled (gyrase) or relaxed (topoisomerase I, II IV) plasmid was quantified using Adobe Photoshop (Histogram mode). Plotting of these values versus the compound concentration yielded sigmoidal shaped curves, which were fitted using Hill's equation (Origin Pro 8.5). All determined IC50 values are the averages of three independent experiments.

in vitro = format: cell-based, Chinese hamster; details: Chinese hamster
Protocol: Human HCT-116 colon carcinoma cells (CCL-247) were obtained from the American Type Culture Collection (ATCC) and Chinese hamster ovary CHO-K1 cells (ACC-110) were obtained from the German Collection of Microorganisms and Cell Cultures (DSMZ). Both cell lines were cultured under the conditions recommended by the respective depositor. Primary HUVEC (human umbilical vein endothelial cells; single donor) were purchased from PromoCell (Heidelberg, Germany) and cultured in Endothelial Cell Growth Medium (PromoCell) containing the following supplements: 2% FCS, 0.4% ECGS, 0.1 ng/ml EGF, 1 ng/ml bFGF, 90 μg/ml heparin, 1 μg/ml hydrocortisone.
Cells were seeded at 6×10^3 cells per well of 96-well plates (Corning CellBind®) in complete medium (180 μl) and directly treated with cystobactamides dissolved in methanol in a serial dilution. Compound were tested in duplicate for 5 d, as well as the internal solvent control. After 5 d incubation, 5 mg/ml MTT in PBS (20 μL) was added per well and it was further incubated for 2 h at 37° C.[7] The medium was then discarded and cells were washed with PBS (100 μl) before adding 2-propanol/10N HCl (250:1, v/v; 100 μl) in order to dissolve formazan granules. The absorbance at 570 nm was measured using a microplate reader (EL808, Bio-Tek Instruments Inc.).

Structure (SMILES)	MIC [1] [µg/mL]	MIC [2] [µg/mL]	MIC [3] [µg/mL]	MIC [4] [µg/mL]	MIC [5] [µg/mL]	MIC [6] [µg/mL]	MIC [7] [µg/mL]	MIC [8] [µg/mL]	IC50 [9] [µM]	GI50 at 5 d (in vitro) [µM]
CO[C@H](C(=O)Nc1ccc(C(=O)Nc2ccc(C(=O)Nc3ccc(C(=O)O)cc3OC(C)C)c(O)c2OC(C)C)cc1)[C@H](NC(=O)c1ccc(NC(=O)c2ccc([N+](=O)[O-])cc2)cc1)C(=O)O [cystobactamide A, Cystobactamide A]	> 59	> 59	0.5 (≈ 0.543 µM)	0.9 (≈ 0.977 µM)	0.5 (≈ 0.543 µM)	> 59	> 59	> 59	~1	
CC(C)Oc1cc(C(=O)O)ccc1NC(=O)c1ccc(NC(=O)c2ccc(N)cc2)c(OC(C)C)c1O [cystobactamide C, Cystobactamide C]	> 65	> 33	8.1 (≈ 16 µM)	16.3 (≈ 32.1 µM)	4.1 (≈ 8.08 µM)	65 (≈ 128 µM)	> 65	65 (≈ 128 µM)	~6	~111
